Measured values from patent US20050222136A1, “Active substance combination” (priority 2004, published 2005).
Counter-ions that a name gives are not always drawn.

Columns and labels:
Format in all cases: in vivo
male Swiss albino mice [1] = experiment: Writhing test in mice (phenylbenzoquinone-induced writhing reactions); conditions: for Writhing test % Activity / inhibition at 40 mg/kg / inhibition at 80 mg/kg / inhibition at 160 mg/kg: 60 minutes prior to phenylbenzoquinone i.p., inhibition of writhing reactions vs control; for Writhing test ED50: p.o., in mg/kg; for Writhing test ED50 / ED50: mice; for inhibition at 40 mg/kg / inhibition at 80 mg/kg / inhibition at 160 mg/kg / ED50: Mus musculus; for ED50: po
Description: Ia. Writhing Test in Mice
(§1) The Writhing test for the determination of the analgesic activity of the inventive active substance combination is carried out according to the method described in the publication of E. Siegmund et al., Proc. Soc. Exp. Biol. Med. 1957, 95, 729-731 using male Swiss albino mice (20-25 g body weight, obtained from Harlan, S. Feliu de Codinas, Spain). The respective part of the description is hereby incorporated by reference and forms part of the respective disclosure.
The Writhing reactions are induced by intraperitoneal injection of phenylbenzoquinone (25 ml/kg in a 0.02% (volume/volume) ethanolic solution in a 5% (volume/volume) solution in destillated water with Evan's blue in an amount of 0.1% weight/volume) and the writhing reactions are counted during a 15 minute period following the injection. The substances to be tested are orally administered 60 minutes prior to the injection of the phenylbenzoquinone solution. The percentage of the inhibition of the writhing reactions is calculated on the basis of the control group as basis for 0% inhibition.

male Wistar albino rats = experiment: Determination of ulcerogenic effect in rats; conditions: stomach three hours after administration
Description: II. Determination of Ulcerogenic Effect in Rats The ulcerogenic effect of the inventive active substance combination is determined in male Wistar albino rats (body weight 160-200 g, obtained from Harlan, S. Feliu de Codinas, Spain) according to the method described in the publication of J. L. Wallace et al., […]. 1990, 259, […]-[…]. The respective part of the description is incorporated by reference and forms part of the present disclosure. Prior to the tests the rats are kept in cages for 24 hours with free access to drinking water. Afterwards the substances to be tested are orally administered to the rats in form of a 5% by weight suspension in arabic gum. Three hours after the administration of the respective substances to be tested the rats are sacrificed by inhalation of carbon dioxide, the stomachs are removed, opened along the great curvature, washed with saline solution and extended over a suitable frame. By the use of a Projectt 1.2 image analyzer (Projectt, Barcelona, Spain) the ulcerated areas of the stomachs are determined and their size expressed in mm^2.

male Swiss albino mice [2] = experiment: Formaline test in mice; conditions: for inhibition at 40 mg/kg: Mus musculus, ip
Description: Ib. Formaline Test in Mice
as §1, with “Formaline” for “Writhing”, “T. Ohkubo” for “E. Siegmund”, “J. Pharmacol.” for “Proc. Soc.”, “Ther. 1990, 252, 1261-1268” for “Biol. Med. 1957, 95, 729-731”
The substances to be tested are intraperitoneally administered to the mice in 5% by weight solution of arabic gum in destined water as vehicle. 15 minutes later 20 μl of a 5% by weight solution of formaline in saline solution is injected into the back of the right paw of the animals. The total time in seconds of licking and/or biting the injected paw is registered in the acute phase, i.e. 0-5 minutes (phase I), and in the chronic phase, i.e. 15-30 (phase II), minutes after injection of the formaline. The percentage of inhibition is calculated based on the medium values of the acute and chronic phases of the control group as 0% inhibition of the primary and secondary response.

[3] = 40 mg/kg i.p., acute phase 0-5 minutes after formaline, inhibition of licking/biting time, read-out: Formaline test % Activity Phase I
[4] = read-out: Formaline test % Activity Phase II

Structure (SMILES) | Writhing test % Activity (male Swiss albino mice [1]; 40 mg/kg p.o.) [%] | Writhing test % Activity (male Swiss albino mice [1]; 80 mg/kg p.o.) [%] | Writhing test % Activity (male Swiss albino mice [1]; 160 mg/kg p.o.) [%] | Writhing test ED50 (male Swiss albino mice [1]) | Ulcerated area (male Wistar albino rats; 80 mg/kg p.o.) [mm^2] | Ulcerated area (male Wistar albino rats; 160 mg/kg p.o.) [mm^2] | inhibition at 40 mg/kg (male Swiss albino mice [1]; 40 mg/kg p.o.) [%] | inhibition at 80 mg/kg (male Swiss albino mice [1]; 80 mg/kg p.o.) [%] | inhibition at 160 mg/kg (male Swiss albino mice [1]; 160 mg/kg p.o.) [%] | ED50 (male Swiss albino mice [1]) [mg/kg] | also measured
CN(C)CCO[C@H](c1ccccc1)c1ccnn1C.O=C(O)Cc1ccccc1Nc1c(Cl)cccc1Cl [R-(+)-Cizolirtine diclofenacate, R-(+)-5-[α-[2-(Dimethylamino)ethoxy]benzyl]-1-methyl-1H-pyrazole diclofenacate] | 14.7 | 57.3 | 72.1 | 84 | 2.75 | 7.24 | – | – | – | – | –
O=C(O)Cc1ccccc1Nc1c(Cl)cccc1Cl [Diclofenac-sodium, diclofenac in form of its sodium salt, reference compound] | – | – | – | – | 13.7 | – | 19.8 | 54.9 | 84.1 | 75.1 | Ulcerated area (male Wistar albino rats; 40 mg/kg p.o.): 3.81 mm^2
CC(C)Cc1ccc(C(C)C(=O)O)cc1.[Na] (stereo not shown) [Ibuprofen-sodium, ibuprofen-sodium, reference compound] | – | – | – | – | 5.29 | – | – | – | – | – | –
CC(C)Cc1ccc(C(C)C(=O)O)cc1 (stereo not shown) [Ibuprofen, reference compound] | – | – | – | – | – | – | 19.8 | 47.6 | 62.9 | 103 | –
COc1ccc2cc([C@H](C)C(=O)O)ccc2c1 [Naproxen, reference compound] | – | – | – | – | 10.5 | – | 32 | 51.2 | 78.5 | 71.2 | inhibition at 40 mg/kg (male Swiss albino mice [2]; [3]): 31.5%; inhibition at 40 mg/kg (male Swiss albino mice [2]; [4]): 18%
CN(C)CCO[C@H](c1ccccc1)c1ccnn1C.COc1ccc2cc([C@H](C)C(=O)O)ccc2c1 [R-(+)-Cizolirtine naproxenate, R-(+)-5-[α-[2-(Dimethylamino)ethoxy]benzyl]-1-methyl-1H-pyrazole naproxenate] | 32.0 | 52.0 | 77.3 | 71.29 | – | 6.86 | – | – | – | – | Formaline test % Activity Phase I (male Swiss albino mice [2]; 40 mg/kg i.p., acute phase 0-5 minutes after formaline, inhibition of licking/biting time): 49%; Formaline test % Activity Phase II (male Swiss albino mice [2]; 40 mg/kg i.p., chronic phase 15-30 minutes after formaline, inhibition of licking/biting time): 36%
CN(C)CCO[C@H](c1ccccc1)c1ccnn1C [R-(+)-Cizolirtine, R-(+)5-[α-[2-(Dimethylamino)ethoxy]benzyl]-1-methyl-1H-pyrazole] | 28.9 | – | – | 79 | – | – | 29 | 49.7 | 72.5 | 79 | inhibition at 40 mg/kg (male Swiss albino mice [2]; [3]): 83%; inhibition at 40 mg/kg (male Swiss albino mice [2]; [4]): 68.5%
CN(C)CCO[C@@H](c1ccccc1)c1ccnn1C [S-(−)-Cizolirtine, S-(−)-5-[α-[2-(Dimethylamino)ethoxy]benzyl]-1-methyl-1H-pyrazole] | 29.0 | 49.7 | 59.7 | 95.26 | – | – | – | – | – | – | –
CN(C)CCO[C@@H](c1ccccc1)c1ccnn1C.COc1ccc2cc([C@H](C)C(=O)O)ccc2c1 [S-(−)-Cizolirtine naproxenate, S-(−)-5-[α-[2-(Dimethylamino)ethoxy]benzyl]-1-methyl-1H-pyrazole naproxenate] | 26.7 | 52.4 | 68.5 | 82.15 | – | – | – | – | – | – | –
CC(C)Cc1ccc([C@H](C)C(=O)O)cc1.CN(C)CCO[C@H](c1ccccc1)c1ccnn1C [R-(+)-Cizolirtine ibuprofenate, R-(+)-5-[α-[2-(Dimethylamino)ethoxy]benzyl]-1-methyl-1H-pyrazole S-(+)-ibuprofenate] | 15.9 | 45 | 80.9 | 84.8 | – | 3.21 | – | – | – | – | –
